Patent US20230234942A1, “COMPOUNDS FOR TREATING HUNTINGTON'S DISEASE” (PTC Therapeutics, Inc., priority 2020, published 2023)

Test system: Endogenous Huntingtin Protein
Test: Endogenous Huntingtin Protein Assay (ELISA-based MSD electrochemiluminescence)
Assay type: cell-based
Settings: Table 2; MSD plates coated with MW1 (expanded polyglutamine) or MAB2166 capture antibody; "inactive" = result above the detection limit of the assay
Experimental: Compounds of Formula (I) were tested using the Meso Scale Discovery (MSD) Assay provided in International Application No. PCT/US2016/066042, filed on Dec. 11, 2016 and claiming priority to U.S. Provisional Application 62/265,652 filed on Dec. 10, 2015, the entire contents of which are incorporated herein by reference.
The Endogenous Huntingtin Protein assay used in Biological Example 1 was developed using the ELISA-based MSD electrochemiluminescence assay platform.
Meso Scale Discovery (MSD) 96-well or 384-well plates were coated overnight at 4° C. with MW1 (expanded polyglutamine) or MAB2166 monoclonal antibody (for capture) at a concentration of 1 μg/mL in PBS (30 μL per well). Plates were then washed three times with 300 μL wash buffer (0.05% Tween-20 in PBS) and blocked (100 μL blocking buffer; 5% BSA in PBS) for 4-5 hours at room temperature with rotational shaking and then washed three times with wash buffer.
Samples (25 μL) were transferred to the antibody-coated MSD plate and incubated overnight at 4° C. After removal of the lysates, the plate was washed three times with wash buffer, and 25 μL of #56565 (Cell signaling; rabbit monoclonal) secondary antibody (diluted to 0.25 μg/mL in 0.05% Tween-20 in blocking buffer) was added to each well and incubated with shaking for 1 Hour at room temperature. Following incubation with the secondary antibody, the wells were rinsed with wash buffer after which 25 μL of goat anti-rabbit SULFO TAG secondary detection antibody (required aspect of the MSD system) (diluted to 0.25 μg/mL in 0.05% Tween-20 in blocking buffer) was added to each well and incubated with shaking for 1 hour at room temperature. After rinsing three times with wash buffer, 150 μL of read buffer T with surfactant (MSD) were added to each empty well, and the plate was imaged on a SI 6000 imager (MSD) according to manufacturers' instructions provided for 96- or 384-well plates.

| SMILES | IC50 [nM] | IC50 (nM) |
| --- | --- | --- |
| COc1cc(-c2ccc(-c3cnc(N4C[C@@H](C5CC5)N[C@@H](C)C4)nn3)c(O)c2)ncn1 [Cpd 226, 2-{3-[(3R,5S)-3-cyclopropyl-5-methylpiperazin-1-yl]-1,2,4-triazin-6-yl}-5-(6-methoxypyrimidin-4-yl)phenol] | 130 |  |
| Oc1cc(-n2nccn2)cnc1-c1cnc(N2CCN[C@@H](C3CC3)C2)nn1 [Cpd 182, 2-{3-[(3S)-3-cyclopropylpiperazin-1-yl]-1,2,4-triazin-6-yl}-5-(2H-1,2,3-triazol-2-yl)pyridin-3-ol] | 173 |  |
| COc1cc(-c2ccc(-c3cnc(N4C[C@@H](C)N[C@@H](C(C)C)C4)nn3)c(O)c2)ccn1 [Cpd 257, 5-(2-methoxypyridin-4-yl)-2-{3-[(3R,5S)-3-methyl-5-(propan-2-yl)piperazin-1-yl]-1,2,4-triazin-6-yl}phenol] | 19.8 |  |
| CC(C)[C@H]1CN(c2ncc(-c3ccc(-c4cn5ccnc5cn4)cc3O)nn2)CCN1 [Cpd 113, 5-(imidazo[1,2-a]pyrazin-6-yl)-2-{3-[(3S)-3-(propan-2-yl)piperazin-1-yl]-1,2,4-triazin-6-yl}phenol] | 36 |  |
| CC(C)[C@H]1CN(c2ncc(-c3ccc(-c4cnn(C)n4)cc3O)nn2)CCN1 [Cpd 262, 5-(2-methyl-2H-1,2,3-triazol-4-yl)-2-{3-[(3S)-3-(propan-2-yl)piperazin-1-yl]-1,2,4-triazin-6-yl}phenol] | 94.2 |  |
| C=CC1CN(c2ncc(-c3ccc(-c4cn[nH]c4)cc3O)nn2)CCN1 (stereo not shown) [Cpd 38, 2-[3-(3-ethenylpiperazin-1-yl)-1,2,4-triazin-6-yl]-5-(1H-pyrazol-4-yl)phenol] | 56.2 |  |
| Cc1nc(-c2ccc(-c3cnc(N4CCN[C@@H](C5CC5)C4)nn3)c(O)c2)ns1 [Cpd 245, 2-{3-[(3S)-3-cyclopropylpiperazin-1-yl]-1,2,4-triazin-6-yl}-5-(5-methyl-1,2,4-thiadiazol-3-yl)phenol] | 11.5 |  |
| C[C@@H]1CN(c2ncc(-c3ccc(-c4cn[nH]c4)cc3O)nn2)C[C@H](C(C)(C)C)N1 [Cpd 247, 2-{3-[(3S,5R)-3-tert-butyl-5-methylpiperazin-1-yl]-1,2,4-triazin-6-yl]-5-(1H-pyrazol-4-yl)phenol] | 201 |  |
| Cn1nc2cc(-c3ccc(-c4cnc(N5CCN[C@@H](C6(C)CC6)C5)nn4)c(O)c3)cnc2n1 [Cpd 241, 2-{3-[(3S)-3-(1-methylcyclopropyl)piperazin-1-yl]-1,2,4-triazin-6-yl}-5-(2-methyl-2H-[1,2,3]triazolo[4,5-b]pyridin-6-yl)phenol] | 5.7 |  |
| CC(C)[C@H]1CN(c2ncc(-c3ccc(-c4ccns4)cc3O)nn2)CCN1 [Cpd 270, 2-{3-[(3S)-3-(propan-2-yl)piperazin-1-yl]-1,2,4-triazin-6-yl}-5-(1,2-thiazol-5-yl)phenol] | 29.2 |  |
| Cc1cn2cc(-c3ccc(-c4cnc(N5C[C@@H](C)N[C@@H](C)C5)nn4)c(O)c3)cc(F)c2n1 [Cpd 66, 2-{3-[(3R,5S)-3,5-dimethylpiperazin-1-yl]-1,2,4-triazin-6-yl]-5-(8-fluoro-2-methylimidazo[1,2-a]pyridin-6-yl)phenol] | 3.7 |  |
| Oc1cc(-n2nccn2)ccc1-c1cnc(N2CCN3CCC[C@H]3C2)nn1 [Cpd 153, 2-{3-[(8aS)-hexahydropyrrolo[1,2-a]pyrazin-2(1H)-yl]-1,2,4-triazin-6-yl}-5-(2H-1,2,3-triazol-2-yl)phenol] | 438 |  |
| CC(C)[C@H]1CN(c2ncc(-c3ccc(-c4nc5cccnc5s4)cc3O)nn2)CCN1 [Cpd 191, 2-{3-[(3S)-3-(propan-2-yl)piperazin-1-yl]-1,2,4-triazin-6-yl}-5-([1,3]thiazolo[5,4-b]pyridin-2-yl)phenol] | 621 |  |
| C[C@H]1CN(c2ncc(-c3ccc(-c4cn[nH]c4)cc3O)nn2)CCN1 [Cpd 165, 2-{3-[(3S)-3-methylpiperazin-1-yl]-1,2,4-triazin-6-yl}-5-(1H-pyrazol-4-yl)phenol] | 124 |  |
| Cc1cc(C)n2nc(-c3ccc(-c4cnc(N5C[C@@H](C)N[C@@H](C)C5)nn4)c(O)c3)nc2n1 [Cpd 117, 2-{3-[(3R,5S)-3,5-dimethylpiperazin-1-yl]-1,2,4-triazin-6-yl}-5-(5,7-dimethyl[1,2,4]triazolo[1,5-a]pyrimidin-2-yl)phenol] |  | inactive |
| Oc1cc(-c2cnn3c2CCC3)ccc1-c1cnc(N2CCN[C@@H](C3CC3)C2)nn1 [Cpd 276, 2-{3-[(3S)-3-cyclopropylpiperazin-1-yl]-1,2,4-triazin-6-yl}-5-(5,6-dihydro-4H-pyrrolo[1,2-b]pyrazol-3-yl)phenol] | 3.7 |  |

| SMILES | IC50 [nM] | IC50 (nM) |
| --- | --- | --- |
| C[C@@H]1CN(c2ncc(-c3ccc(-c4cc5nn(C)nc5cn4)cc3O)nn2)C[C@H](C)N1 [Cpd 198, 2-{3-[(3R,5S)-3,5-dimethylpiperazin-1-yl]-1,2,4-triazin-6-yl}-5-(2-methyl-2H-[1,2,3]triazolo[4,5-c]pyridin-6-yl)phenol] | 12.5 |  |
| C[C@@H]1CN(c2ncc(-c3ccc(-c4cc(C#N)c5nn(C)cc5c4)cc3O)nn2)C[C@H](C)N1 [Cpd 80, 5-(4-{3-[(3R,5S)-3,5-dimethylpiperazin-1-yl]-1,2,4-triazin-6-yl}-3-hydroxyphenyl)-2-methyl-2H-indazole-7-carbonitrile] | 5.3 |  |
| Cn1cc2cc(-c3ccc(-c4cnc(N5CCN6CCCC6C5)nn4)c(O)c3)cc(F)c2n1 (stereo not shown) [Cpd 95, 5-(7-fluoro-2-methyl-2H-indazol-5-yl)-2-[3-(hexahydropyrrolo[1,2-a]pyrazin-2(1H)-yl)-1,2,4-triazin-6-yl]phenol] | 8.3 |  |
| Cn1cc(-c2ccc(-c3cnc(N4CCN[C@@H](C5CC5)C4)nn3)c(O)c2)cn1 [Cpd 12, 2-{3-[(3S)-3-cyclopropylpiperazin-1-yl]-1,2,4-triazin-6-yl}-5-(1-methyl-1H-pyrazol-4-yl)phenol] | 10.9 |  |
| CC(C)(C)[C@H]1CN(c2ncc(-c3ccc(-c4cn5ncnc5cn4)cc3O)nn2)CCN1 [Cpd 129, 2-{3-[(3S)-3-tert-butylpiperazin-1-yl]-1,2,4-triazin-6-yl}-5-([1,2,4]triazolo[1,5-a]pyrazin-6-yl)phenol] | 18.6 |  |
| Cn1nc2cc(-c3ccc(-c4cnc(N5CCN[C@H](C6(C)CC6)C5)nn4)c(O)c3)cnc2n1 [Cpd 242, 2-{3-[(3R)-3-(1-methylcyclopropyl)piperazin-1-yl]-1,2,4-triazin-6-yl}-5-(2-methyl-2H-[1,2,3]triazolo[4,5-b]pyridin-6-yl)phenol] | 106 |  |
| Cc1nc2cnc(-c3ccc(-c4cnc(N5C[C@@H](C)N[C@@H](C)C5)nn4)c(O)c3)cn2n1 [Cpd 167, 2-{3-[(3R,5S)-3,5-dimethylpiperazin-1-yl]-1,2,4-triazin-6-yl}-5-(2-methyl[1,2,4]triazolo[1,5-a]pyrazin-6-yl)phenol] | 14.2 |  |
| Cc1cn2cc(-c3ccc(-c4cnc(N5C[C@@H](C)N(C)[C@@H](C)C5)nn4)c(O)c3)cc(F)c2n1 [Cpd 94, 5-(8-fluoro-2-methylimidazo[1,2-a]pyridin-6-yl)-2-{3-[(3R,5S)-3,4,5-trimethylpiperazin-1-yl]-1,2,4-triazin-6-yl}phenol] | 8.3 |  |
| CC(C)[C@H]1CN(c2ncc(-c3ccc(-c4ccc5nncn5c4)cc3O)nn2)CCN1 [Cpd 115, 2-{3-[(3S)-3-(propan-2-yl)piperazin-1-yl]-1,2,4-triazin-6-yl}-5-([1,2,4]triazolo[4,3-a]pyridin-6-yl)phenol] | 180 |  |
| CC(C)(O)C1CN(c2ncc(-c3ccc(-c4cn[nH]c4)cc3O)nn2)CCN1 (stereo not shown) [Cpd 13, 2-{3-[3-(2-hydroxypropan-2-yl)piperazin-1-yl]-1,2,4-triazin-6-yl}-5-(1H-pyrazol-4-yl)phenol] | 11.4 |  |
| COc1cc(-c2ccc(-c3cnc(N4C[C@@H](C)N[C@@H](C(C)C)C4)nn3)c(O)c2)ncn1 [Cpd 230, 5-(6-methoxypyrimidin-4-yl)-2-{3-[(3R,5S)-3-methyl-5-(propan-2-yl)piperazin-1-yl]-1,2,4-triazin-6-yl}phenol] | 11.3 |  |
| CC1CN(c2ncc(-c3ccc(-c4cc(F)c5nn(C)cc5c4)cc3O)nn2)CCN1 (stereo not shown) [Cpd 67, 5-(7-fluoro-2-methyl-2H-indazol-5-yl)-2-[3-(3-methylpiperazin-1-yl)-1,2,4-triazin-6-yl]phenol] | 2.1 |  |
| C[C@@H]1CN(c2ncc(-c3ccc(-c4ccc5nn(C)cc5c4)cc3O)nn2)C[C@H](C)N1 [Cpd 72, 2-{3-[(3R,5S)-3,5-dimethylpiperazin-1-yl]-1,2,4-triazin-6-yl]-5-(2-methyl-2H-indazol-5-yl)phenol] | 4.1 |  |
| Cc1nc2ccc(-c3ccc(-c4cnc(N5CCN[C@@H](C(C)C)C5)nn4)c(O)c3)cn2n1 [Cpd 85, 5-(2-methyl[1,2,4]triazolo[1,5-a]pyridin-6-yl)-2-{3-[(3S)-3-(propan-2-yl)piperazin-1-yl]-1,2,4-triazin-6-yl}phenol] | 6 |  |
| Cn1nnc2ccc(-c3ccc(-c4cnc(N5CCN[C@@H](C6CC6)C5)nn4)c(O)c3)nc21 [Cpd 173, 2-{3-[(3S)-3-cyclopropylpiperazin-1-yl]-1,2,4-triazin-6-yl}-5-(3-methyl-3H-[1,2,3]triazolo[4,5-b]pyridin-5-yl)phenol] | 21.3 |  |
